In US20100063041A1, “NOVEL PHENYLPROPIONIC ACID DERIVATIVES AS PEROXISOME PROLIFERATOR-ACTIVATED GAMMA RECEPTOR MODULATORS, METHOD OF THE SAME, AND PHARMACEUTICAL COMPOSITION COMPRISING THE SAME” (priority 2007, published 2010):
Numbering of substitutions follows the chain as printed.

Experiments:
[1] = test system: diabetic male mice (db/db mice); experiment: blood glucose-lowering effects in mice with hyperglycemic diabetes; assay type: in vivo; conditions: for % Inhibition vs. Control / Blood glucose D5: oral once a day for 5 days; for Blood glucose D0: oral
Experimental: Effects of PPAR compounds on a blood glucose level were evaluated in 7-week-old diabetic male mice (db/db mice). Blood was collected from caudal veins of the diabetic animals to which the drug was administered once a day for 5 consecutive days, and the blood glucose level was then measured with a blood glucose test meter (ACCU CHEK Active®).

Mouse PPAR-α = target: T1, Mouse PPAR-α (Mus musculus, UniProt P23204); experiment: transactivation assay (GAL4 chimeric receptor, luciferase) in CV-1 cells; assay type: cell-based; conditions: for Emax: CV-1, Relative Response % to maximum effects of the positive control drug, read-out: Max % Mouse PPAR-α; for EC50: CV-1 cells, GAL4 chimeric receptor, 24 hours
T1 construct: expressed in transfected cells; host or cells: CV-1 (CCL-70, ATCC)
T1 sequence (P23204 239-466 limits assumed): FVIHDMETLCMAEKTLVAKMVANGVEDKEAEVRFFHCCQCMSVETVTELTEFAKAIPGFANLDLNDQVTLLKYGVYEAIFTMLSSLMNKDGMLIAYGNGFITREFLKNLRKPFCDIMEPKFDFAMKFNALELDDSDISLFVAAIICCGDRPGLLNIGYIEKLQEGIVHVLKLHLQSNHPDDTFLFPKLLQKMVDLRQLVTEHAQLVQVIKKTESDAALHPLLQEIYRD
Experimental: (§1) Following induction of transient intracellular expression of PPAR-α and -γ, an ability of the inventive compounds to induce transactivation of PPARs via activation of each PPAR was evaluated as an efficacy of the compound (transactivation assay).
(§2) For this assay, the African green monkey kidney cell line CV-1 (CCL-70, ATCC) was used as a test cell line, and PPAR-α and -γ were murine- and human-derived PPARs. Samples used were compounds prepared in Examples 19, 21, 23, 25, 26, 27, 31, 33, 34, 36, 38, 40, 42, 43 and 50. As a positive control drug, 3-4-[2-(2-phenyl-4-methyl-1,3-oxazole)ethyloxy]phenyl-(2S)-[(1-methyl-3-oxo-3-phenyl)propenyl]aminopropionic acid was used that is a PPAR-α or -γ agonist which was once under development and whose clinical trials and studies were suspended at phase III. A chimeric receptor was adopted to circumvent the probable interference due to endogenous receptor activation (Jian-Shen Q. et al., Mol Cell Biol (1995) 15(3):1817-1825). The chimeric receptor was constructed as a fusion of a PPAR-α or -γ ligand-binding domain with a DNA-binding domain of GAL4 which is a yeast transactivator.
(§3) The CV-1 cells were transiently transfected with each of chimeric receptor-expressing DNA constructs and each of DNA constructs comprising 5 copies of the GAL4 DNA-binding domain and capable of inducing expression of firefly luciferase or Renilla luciferase using a Lipofectamine Plus reagent (Invitrogen, USA). After transfection for 3 hours, the culture media were replaced with DMEM containing the above samples and 10% fetal bovine serum. 24 hours later, the firefly luciferase activity and Renilla luciferase activity were continuously assayed while adding an equal amount of a dual luciferase assay reagent (Promega, USA) to the cell-containing media. The transfection efficiency was normalized against Renilla luciferase activity (Motomura W. et al., Int J Cancer (2004) 108(1):41-6). The PPAR-α and -γ activity was determined by calculating Relative Response % to maximum effects of the positive control drug, and conducting multiple dose evaluation of the inventive compounds to calculate EC50, which is the concentration of a drug which produces 50% activation relative to maximum effects of the inventive compounds, by nonlinear regression analysis.

Human PPAR-α = target: T2, Human PPAR-α (Homo sapiens, UniProt Q07869); experiment: as above; assay type: cell-based; conditions: for Emax: CV-1, Relative Response % to maximum effects of the positive control drug, read-out: Max % Human PPAR-α; for EC50: CV-1 cells, GAL4 chimeric receptor, 24 hours
T2 construct: expressed in transfected cells; host or cells: CV-1 (CCL-70, ATCC)
T2 sequence (Q07869 239-466 limits assumed): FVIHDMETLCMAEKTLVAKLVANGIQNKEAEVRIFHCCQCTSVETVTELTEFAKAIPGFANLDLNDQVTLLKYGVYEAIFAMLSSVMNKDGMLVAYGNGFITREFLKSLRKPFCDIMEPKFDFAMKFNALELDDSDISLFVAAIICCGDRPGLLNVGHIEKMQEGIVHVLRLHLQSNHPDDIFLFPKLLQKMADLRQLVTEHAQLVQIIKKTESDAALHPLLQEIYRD
Experimental: as §1, §2, §3

Human PPAR-γ = target: T3, Human PPAR-γ (Homo sapiens, UniProt P37231); experiment: as above; assay type: cell-based; conditions: for Emax: CV-1, Relative Response % to maximum effects of the positive control drug, read-out: Max % Human PPAR-γ; for EC50: CV-1 cells, GAL4 chimeric receptor, 24 hours
T3 construct: expressed in transfected cells; host or cells: CV-1 (CCL-70, ATCC)
T3 sequence (P37231 238-503 limits assumed): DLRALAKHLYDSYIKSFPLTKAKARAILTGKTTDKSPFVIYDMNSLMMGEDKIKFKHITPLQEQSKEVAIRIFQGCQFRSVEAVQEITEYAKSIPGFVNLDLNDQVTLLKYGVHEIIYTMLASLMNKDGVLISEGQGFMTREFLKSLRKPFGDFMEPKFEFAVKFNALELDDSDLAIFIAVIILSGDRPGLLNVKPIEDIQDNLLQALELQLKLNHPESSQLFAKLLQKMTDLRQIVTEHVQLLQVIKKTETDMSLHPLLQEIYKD
Experimental: as §1, §2, §3

Mouse PPAR-γ = target: T4, Mouse PPAR-γ (Mus musculus, UniProt P37238); experiment: as above; assay type: cell-based; conditions: for Emax: CV-1, Relative Response % to maximum effects of the positive control drug, read-out: Max % Mouse PPAR-γ; for EC50: CV-1 cells, GAL4 chimeric receptor, 24 hours
T4 construct: expressed in transfected cells; host or cells: CV-1 (CCL-70, ATCC)
T4 sequence (P37238 238-503 limits assumed): T3 sequence (P37231 238-503 limits assumed) with S93N, V98I, S146N, L226V, Q245H
Experimental: as §1, §2, §3

[2] = 12-week clinical, P>0.05, cited from earlier work

CCO[C@@H](Cc1ccc(OCc2sc(-c3ccc(-c4cc(COC)on4)cc3)cc2C)cc1)C(=O)O [Example 36, (S)-2-ethoxy-3-(4-((5-(4-(5-(methoxymethyl)isoxazol-3-yl)phenyl)-3-methylthiophen-2-yl)methoxy)phenyl)propionic acid]
% Inhibition vs. Control ([1]; 1 mg/kg): 33%
Blood glucose D5 ([1]; 1 mg/kg): 381 ± 73 mg/dL
% Inhibition vs. Control ([1]; 10 mg/kg): 62%
Blood glucose D5 ([1]; 10 mg/kg): 278 ± 56 mg/dL
Blood glucose D0 ([1]; 1 mg/kg): 577 ± 15 mg/dL
Blood glucose D0 ([1]; 10 mg/kg): 577 ± 16 mg/dL
Emax (Mouse PPAR-α): 21%
EC50 (Mouse PPAR-α): 4300 nM
Emax (Human PPAR-α): 25%
EC50 (Human PPAR-α): 2300 nM
Emax (Human PPAR-γ): 37%
EC50 (Human PPAR-γ): 41 nM
Emax (Mouse PPAR-γ): 48%
EC50 (Mouse PPAR-γ): 354 nM

CCO[C@@H](Cc1ccc(OCc2sc(-c3ccc(-c4cc(C(C)(C)C)on4)cc3)cc2C)cc1)C(=O)O [Example 48, (S)-3-(4-((5-(4-(5-tert-butylisoxazol-3-yl)phenyl)-3-methylthiophen-2-yl)methoxy)phenyl)-2-ethoxypropionic acid]
% Inhibition vs. Control ([1]; 1 mg/kg): 24%
Blood glucose D5 ([1]; 1 mg/kg): 375 ± 25 mg/dL
% Inhibition vs. Control ([1]; 3 mg/kg): 30%
Blood glucose D5 ([1]; 3 mg/kg): 347 ± 70 mg/dL
% Inhibition vs. Control ([1]; 10 mg/kg): 43%
Blood glucose D5 ([1]; 10 mg/kg): 280 ± 40 mg/dL
Blood glucose D0 ([1]; 1 mg/kg): 452 ± 22 mg/dL
Blood glucose D0 ([1]; 3 mg/kg): 453 ± 20 mg/dL
Blood glucose D0 ([1]; 10 mg/kg): 453 ± 43 mg/dL
Emax (Mouse PPAR-α): 25%
EC50 (Mouse PPAR-α): 12100 nM
Emax (Human PPAR-α): 22%
EC50 (Human PPAR-α): 2830 nM
Emax (Human PPAR-γ): 27%
EC50 (Human PPAR-γ): 7 nM
Emax (Mouse PPAR-γ): 24%
EC50 (Mouse PPAR-γ): 31 nM

CC(=O)NCCOC(=O)[C@H](Oc1cccc(C(F)(F)F)c1)c1ccc(Cl)cc1 [metaglidasen]
edema incidence rate ([2]; 20% in control group): 7.2%
body weight ([2]; +1.3 kg in control group): +0.6 kg

CCO[C@@H](Cc1ccc(OCc2sc(-c3ccc(-c4nnn(COC)n4)cc3)cc2C)cc1)C(=O)O [Example 32, (S)-2-ethoxy-3-(4-((5-(4-(2-(methoxymethyl)-2H-tetrazol-5-yl)phenyl)-3-methylthiophen-2-yl)methoxy)phenyl)propionic acid]
% Inhibition vs. Control ([1]; 0.3 mg/kg): 21%
Blood glucose D5 ([1]; 0.3 mg/kg): 416 ± 53 mg/dL
% Inhibition vs. Control ([1]; 3 mg/kg): 61%
Blood glucose D5 ([1]; 3 mg/kg): 205 ± 42 mg/dL
Blood glucose D0 ([1]; 0.3 mg/kg): 500 ± 32 mg/dL
Blood glucose D0 ([1]; 3 mg/kg): 498 ± 30 mg/dL
Emax (Mouse PPAR-α): 9%
Emax (Human PPAR-α): 18%
EC50 (Human PPAR-α): 1010 nM
Emax (Human PPAR-γ): 32%
EC50 (Human PPAR-γ): 111 nM
Emax (Mouse PPAR-γ): 31%
EC50 (Mouse PPAR-γ): 322 nM

CCO[C@@H](Cc1ccc(OCc2sc(-c3ccc(-c4cc(C)no4)cc3)cc2C)cc1)C(=O)O [Example 41, (S)-2-ethoxy-3-(4-((3-methyl-5-(4-(3-methylisoxazol-5-yl)phenyl)thiophen-2-yl)methoxy)phenyl)propionic acid]
% Inhibition vs. Control ([1]; 0.1 mg/kg): 4%
Blood glucose D5 ([1]; 0.1 mg/kg): 455 ± 67 mg/dL
% Inhibition vs. Control ([1]; 0.3 mg/kg): 20%
Blood glucose D5 ([1]; 0.3 mg/kg): 378 ± 44 mg/dL
% Inhibition vs. Control ([1]; 1 mg/kg): 36%
Blood glucose D5 ([1]; 1 mg/kg): 304 ± 13 mg/dL
% Inhibition vs. Control ([1]; 3 mg/kg): 46%
Blood glucose D5 ([1]; 3 mg/kg): 257 ± 40 mg/dL
Blood glucose D0 ([1]; 0.1 mg/kg): 422 ± 34 mg/dL
Blood glucose D0 ([1]; 0.3 mg/kg): 422 ± 36 mg/dL
Blood glucose D0 ([1]; 1 mg/kg): 422 ± 30 mg/dL
Blood glucose D0 ([1]; 3 mg/kg): 423 ± 35 mg/dL
Emax (Mouse PPAR-α): 19%
EC50 (Mouse PPAR-α): 6160 nM
Emax (Human PPAR-α): 23%
EC50 (Human PPAR-α): 3150 nM
Emax (Human PPAR-γ): 30%
EC50 (Human PPAR-γ): 62 nM
Emax (Mouse PPAR-γ): 34%
EC50 (Mouse PPAR-γ): 142 nM

CCO[C@@H](Cc1ccc(OCc2sc(-c3ccc(-c4csc(C)n4)cc3)cc2C)cc1)C(=O)O [Example 21, (S)-2-ethoxy-3-(4-((3-methyl-5-(4-(2-methylthiazol-4-yl)phenyl)thiophen-2-yl)methoxy)phenyl)propionic acid]
% Inhibition vs. Control ([1]; 0.1 mg/kg): 16%
Blood glucose D5 ([1]; 0.1 mg/kg): 416 ± 45 mg/dL
% Inhibition vs. Control ([1]; 0.3 mg/kg): 28%
Blood glucose D5 ([1]; 0.3 mg/kg): 354 ± 67 mg/dL
% Inhibition vs. Control ([1]; 1 mg/kg): 29%
Blood glucose D5 ([1]; 1 mg/kg): 354 ± 58 mg/dL
% Inhibition vs. Control ([1]; 3 mg/kg): 36%
Blood glucose D5 ([1]; 3 mg/kg): 319 ± 63 mg/dL
Blood glucose D0 ([1]; 0.1 mg/kg): 485 ± 44 mg/dL
Blood glucose D0 ([1]; 0.3 mg/kg): 483 ± 38 mg/dL
Blood glucose D0 ([1]; 1 mg/kg): 482 ± 45 mg/dL
Blood glucose D0 ([1]; 3 mg/kg): 483 ± 45 mg/dL
Emax (Mouse PPAR-α): 4%
Emax (Human PPAR-α): 0%
Emax (Human PPAR-γ): 15%
EC50 (Human PPAR-γ): 472 nM
Emax (Mouse PPAR-γ): 18%
EC50 (Mouse PPAR-γ): 883 nM
